Patent US20250204528A1, “USE OF 2-AMINO-3-INDOLYL BUTYRIC ACID OR 3-METHYLPYRROLIDINE-2-CARBOXYLIC ACID AS PLANT IMMUNITY ELICITOR” (NANJING TIANNONG BIOTECHNOLOGY CO., LTD, priority 2021, published 2025)
Where “and” joins values, the source holds several entries; their conditions need not be identical. Equal values may be shown once.

Key:
[1] = system: wheat powdery mildew fungus; experiment: Induction of wheat against infection by powdery mildew fungi (greenhouse pots); format: in vivo, wheat (NAU0686); conditions: for Disease index of the susceptible wheat / Relative immune effect: concentration greater than 1,000 nm
Description: […] A blank control was additionally set. After germination of wheat (NAU0686) seeds was accelerated, the wheat was planted in a sterilized soil culture bowl and cultured in a greenhouse at 23±1° C. with the illumination for 12 h. When the seedlings grew to a stage of one true leaf and one terminal bud, the wheat seedlings were sprayed with the 2-amino-3-indolyl butyric acid solutions at the above concentrations on stems and leaves. The treatment was repeated once every 24 h and a total of two treatments was performed. Fresh wheat powdery mildew fungus spores were evenly scattered on the wheat leaves after 24 h. 3 pots of the plants were treated each time with 20 plants in each pot. After 10 d, the disease grade of the wheat after each treatment was investigated. The disease degree was recorded according to the wheat powdery mildew grading standard in the Guidelines for Field Efficacy Trials of Pesticides (I), and the disease indexes and the relative immune effects were calculated by using the same calculation formula as that of those of the tomato spotted wilt.
(§1) Grading standard of wheat powdery mildew (taking leaves as units): • grade 1: the area of the disease spots accounted 5% or less of that of the whole leaves; • grade 3: the area of the disease spots accounted for 6%-15% of that of the whole leaves; and • grade 5: the area of the disease spots accounted for 16%-25% of that of the whole leaves; and • grade 7: the area of the disease spots accounted for 26%-50% of that of the whole leaves; and • grade 9: the area of the disease spots accounted for 50% or more of that of the whole leaves.

wheat powdery mildew = experiment: Field test of inducing wheat against infection by powdery mildew fungi; format: in vivo; conditions: 1,000 nm
Description: Stems and leaves were sprayed with a 2-amino-3-indolyl butyric acid solution (0.02% by volume of a surfactant Tween 20 was added) at the concentration of 1,000 nm in a filed, sprayed with 0.02% by volume of the surfactant tween 20 as an auxiliary agent control and sprayed with 30 g/mu of ATaiLing as a positive control. Each treatment was repeated three times. The disease grade of the wheat after each treatment was investigated. The disease degree was recorded according to the wheat powdery mildew grading standard in the Guidelines for Field Efficacy Trials of Pesticides (I), and the disease indexes and the relative immune effects were calculated by using the same calculation formula as that of those of the tomato spotted wilt. After the harvested wheat seeds were air-dried, the thousand-grain weights of the wheat seeds after different treatments were measured.
as §1

hydroponic wheat = experiment: Wheat under drought stress (25% PEG-6000); format: in vivo; conditions: for Drought damage index (%) / Dry weight(g) Overground part / Dry weight(g) Underground part / Fresh weight (g) Overground part / Fresh weight (g) Underground part / Root length (cm): 25% PEG-6000 6 d, recovery 7 d; for Drought damage index reduced by / Fresh weight of the overground part improved by / Fresh weight of the underground part improved by / Root length of the wheat seedlings increased by: compared with the control group
Description: A 6-mesh sieve was used as a container to hydroponic wheat, 50 grains were sieved each time, a ½ Hoagland nutrient solution was replaced every other two days, a 2-amino-3-indolyl butyric acid solution was sprayed on the leaf surfaces when the wheat grew to a stage of two true leaves and one terminal bud, wherein the concentrations of 2-amino-3-indolyl butyric acid were 0 nm, 100 nm and 1,000 nm, and meanwhile, 0.02% of Tween-20 was added as a surfactant. After continuously spraying for two days, on the third day, the hydroponic nutrient solution was replaced with a ½ Hoagland nutrient solution containing 25% PEG-6000 to perform a stress treatment, a rehydration treatment was performed after the drought stress for 6 d, the wheat recovered to grow for 7 d in a normal nutrient solution, a drought damage index was observed and determined, and the root length and biomass were determined.
The performance characteristics of the leaves subjected to the drought damage were similar to those of the leaves subjected to a salt damage. The drought damage rate and the drought damage index were introduced by using the evaluation index of the salt damage, a drought damage index formula was as follows, and the drought damage grading standard was shown in table 16.

[2] = treatment concentration 10,000 nm
[3] = compared with the auxiliary agent control

| Compound | Disease index of the susceptible wheat [1] | Relative immune effect [1] | Relative immune effect (%) ([1]; treatment concentration 10 nm) | Relative immune effect (%) ([1]; treatment concentration 100 nm) | Relative immune effect (%) [1, 2] | Drought damage index (%) (hydroponic wheat; 100 nm) | Dry weight(g) Overground part (hydroponic wheat; 100 nm) | Dry weight(g) Underground part (hydroponic wheat; 100 nm) | Fresh weight (g) Overground part (hydroponic wheat; 100 nm) | Fresh weight (g) Underground part (hydroponic wheat; 100 nm) | Root length (cm) (hydroponic wheat; 100 nm) | Drought damage index (%) (hydroponic wheat; 1,000 nm) | Dry weight(g) Overground part (hydroponic wheat; 1,000 nm) | Dry weight(g) Underground part (hydroponic wheat; 1,000 nm) | Fresh weight (g) Overground part (hydroponic wheat; 1,000 nm) | Fresh weight (g) Underground part (hydroponic wheat; 1,000 nm) | Root length (cm) (hydroponic wheat; 1,000 nm) | Drought damage index reduced by (hydroponic wheat; 1,000 nm) | Fresh weight of the overground part improved by (hydroponic wheat; 1,000 nm) | Fresh weight of the underground part improved by (hydroponic wheat; 1,000 nm) | also measured |
| --- | --- | --- | --- | --- | --- | --- | --- | --- | --- | --- | --- | --- | --- | --- | --- | --- | --- | --- | --- | --- | --- |
| CC(c1c[nH]c2ccccc12)C(N)C(=O)O (centres unmarked) | lower than 50 | exceeded 50% | 22.04% | 32.59% | 68.42% and 68.43% | 44% | 0.82 ± 0.01b g | 0.35 ± 0.01a g | 7.28 ± 0.05b g | 3.66 ± 0.01b g | 13.97 ± 0.03a cm | 24% | 0.90 ± 0.05a g | 0.38 ± 0.01a g | 8.87 ± 0.09a g | 4.51 ± 0.02a g | 14.60 ± 0.01a cm | 44% | 44.93% | 54.98% | Relative immune effect (%) ([1]; treatment concentration 1,000 nm): 53.58%; Relative immune effect (%) (wheat powdery mildew): 40.55%; Thousand-grain weight (wheat powdery mildew): 27.39 g; Thousand-grain weight (g) (wheat powdery mildew): 27.39 ± 0.29a g; Relative immune effect improved by (wheat powdery mildew; compared with Altailing control group): 12%; Relative immune effect improved by (wheat powdery mildew; [3]): 40%; Thousand-grain weight increased by (wheat powdery mildew; [3]): 10.80%; Disease index reduced by (wheat powdery mildew; vs auxiliary agent control group): 40.55%; Root length of the wheat seedlings increased by (hydroponic wheat; 1,000 nm): 10.86% |
| CC1CCNC1C(=O)O (centres unmarked) [3-methylpyrrolidine-2-carboxylic acid] | lower than 50 | exceeded 50% | 25.04% | 43.73% | 68.57% | 39% | 0.98 ± 0.07b g | 0.47 ± 0.05b g | 7.83 ± 0.10b g | 3.85 ± 0.05b g | 14.50 ± 0.21b cm | 20% | 1.11 ± 0.06a g | 0.55 ± 0.03a g | 9.12 ± 0.13a g | 4.67 ± 0.11a g | 15.03 ± 0.31a cm | 61% | 44.08% | 36.55% | Root length of the wheat seedlings increased by (hydroponic wheat; 1,000 nm): 12.58% |
